Measurements: ChEMBL document CHEMBL3585239, “Two diseases, one approach: multitarget drug discovery in Alzheimer's and neglected tropical diseases” (Medchemcomm, 2014)
Calls of active or inactive are those of the source. No cut-off for these calls is given here.

What was measured:
[1] = molecular target: Glutamate NMDA receptor; GRIN1/GRIN2A (Homo sapiens, UniProt Q05586+Q12879); assay: Inhibition of NMDA receptor (unknown origin) at 100 mV; assay type: protein-complex assay
Acetylcholinesterase [2] = molecular target: T1, Acetylcholinesterase (Homo sapiens, UniProt P22303); assay: Inhibition of human recombinant AChE using acetylthiocholine iodide as substrate after 20 mins by Ellmans method
T1 sequence (P22303 whole entry): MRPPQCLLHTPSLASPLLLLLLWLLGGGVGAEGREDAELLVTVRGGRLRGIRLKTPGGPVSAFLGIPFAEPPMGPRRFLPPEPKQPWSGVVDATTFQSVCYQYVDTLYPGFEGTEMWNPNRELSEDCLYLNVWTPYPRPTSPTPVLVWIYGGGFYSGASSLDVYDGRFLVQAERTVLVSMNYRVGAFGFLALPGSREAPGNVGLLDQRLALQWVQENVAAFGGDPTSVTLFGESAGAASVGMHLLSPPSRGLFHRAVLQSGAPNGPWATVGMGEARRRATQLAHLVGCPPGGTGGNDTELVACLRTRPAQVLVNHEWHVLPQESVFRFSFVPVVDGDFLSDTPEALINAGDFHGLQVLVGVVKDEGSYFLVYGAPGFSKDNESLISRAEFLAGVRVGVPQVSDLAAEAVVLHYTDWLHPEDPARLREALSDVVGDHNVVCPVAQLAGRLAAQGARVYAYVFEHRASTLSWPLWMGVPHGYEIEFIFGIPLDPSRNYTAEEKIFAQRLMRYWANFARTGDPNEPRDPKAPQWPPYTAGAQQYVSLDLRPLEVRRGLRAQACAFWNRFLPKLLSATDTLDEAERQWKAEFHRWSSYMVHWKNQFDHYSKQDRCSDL

Acetylcholinesterase [3] = molecular target: T1, Acetylcholinesterase; assay: Inhibition of human recombinant AChE using acetylthiocholine iodide as substrate after 20 mins by Ellmans method relative to dimebon
[4] = molecular target: T2, Amyloid-beta precursor protein (Homo sapiens, UniProt P05067); assay: Inhibition of self-mediated amyloid beta (1 to 42) aggregation (unknown origin) at 10 uM after 24 hrs by thioflavin T fluorometric assay
T2 sequence (P05067 whole entry): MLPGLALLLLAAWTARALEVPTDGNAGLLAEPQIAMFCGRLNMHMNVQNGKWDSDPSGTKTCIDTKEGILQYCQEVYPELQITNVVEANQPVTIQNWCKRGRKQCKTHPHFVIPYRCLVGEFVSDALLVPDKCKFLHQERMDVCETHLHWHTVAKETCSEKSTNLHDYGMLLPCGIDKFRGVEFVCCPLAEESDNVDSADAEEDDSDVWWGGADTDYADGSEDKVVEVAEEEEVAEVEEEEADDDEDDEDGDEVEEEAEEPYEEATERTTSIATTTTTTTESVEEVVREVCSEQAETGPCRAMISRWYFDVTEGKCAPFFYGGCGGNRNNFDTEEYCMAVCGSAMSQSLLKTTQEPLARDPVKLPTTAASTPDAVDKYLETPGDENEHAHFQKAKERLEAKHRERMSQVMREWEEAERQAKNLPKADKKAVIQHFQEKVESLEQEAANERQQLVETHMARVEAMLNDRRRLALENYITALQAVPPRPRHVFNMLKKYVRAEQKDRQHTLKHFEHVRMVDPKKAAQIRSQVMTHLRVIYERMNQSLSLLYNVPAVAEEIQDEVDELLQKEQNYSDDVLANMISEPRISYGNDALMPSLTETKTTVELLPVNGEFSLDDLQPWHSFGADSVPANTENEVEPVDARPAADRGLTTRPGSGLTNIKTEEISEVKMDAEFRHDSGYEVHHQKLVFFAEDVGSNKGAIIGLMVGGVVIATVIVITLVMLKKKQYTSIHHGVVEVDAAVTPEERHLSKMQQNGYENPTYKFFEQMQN

L6 = assay: Cytotoxicity against rat L6 cells; assay type: cell-based
Trypanosoma brucei = assay: Antitrypanosomal activity against Trypanosoma brucei; assay type: functional, organism-based
[5] = Inhibition of Trypanosoma brucei GAPDH
[6] = Inhibition of parasite-specific trypanothione reductase
[7] = molecular target: T2, Amyloid-beta precursor protein; assay: Inhibition of self-mediated amyloid beta (1 to 42) aggregation (unknown origin) after 24 hrs by thioflavin T fluorometric assay
[8] = Selectivity index, ratio of ED50 for mammalian cells to ED50 for Trypanosoma brucei rhodesiense; assay type: toxicity; conditions: read-out: Ratio ED50
[9] = tested on: Trypanosoma brucei rhodesiense; assay: Antitrypanosomal activity against bloodstream forms of Trypanosoma brucei rhodesiense; assay type: functional; conditions: read-out: ED50 (the source's name)

Glutamate NMDA receptor; GRIN1/GRIN2A, sequence (Q12879 whole entry, other chains not shown): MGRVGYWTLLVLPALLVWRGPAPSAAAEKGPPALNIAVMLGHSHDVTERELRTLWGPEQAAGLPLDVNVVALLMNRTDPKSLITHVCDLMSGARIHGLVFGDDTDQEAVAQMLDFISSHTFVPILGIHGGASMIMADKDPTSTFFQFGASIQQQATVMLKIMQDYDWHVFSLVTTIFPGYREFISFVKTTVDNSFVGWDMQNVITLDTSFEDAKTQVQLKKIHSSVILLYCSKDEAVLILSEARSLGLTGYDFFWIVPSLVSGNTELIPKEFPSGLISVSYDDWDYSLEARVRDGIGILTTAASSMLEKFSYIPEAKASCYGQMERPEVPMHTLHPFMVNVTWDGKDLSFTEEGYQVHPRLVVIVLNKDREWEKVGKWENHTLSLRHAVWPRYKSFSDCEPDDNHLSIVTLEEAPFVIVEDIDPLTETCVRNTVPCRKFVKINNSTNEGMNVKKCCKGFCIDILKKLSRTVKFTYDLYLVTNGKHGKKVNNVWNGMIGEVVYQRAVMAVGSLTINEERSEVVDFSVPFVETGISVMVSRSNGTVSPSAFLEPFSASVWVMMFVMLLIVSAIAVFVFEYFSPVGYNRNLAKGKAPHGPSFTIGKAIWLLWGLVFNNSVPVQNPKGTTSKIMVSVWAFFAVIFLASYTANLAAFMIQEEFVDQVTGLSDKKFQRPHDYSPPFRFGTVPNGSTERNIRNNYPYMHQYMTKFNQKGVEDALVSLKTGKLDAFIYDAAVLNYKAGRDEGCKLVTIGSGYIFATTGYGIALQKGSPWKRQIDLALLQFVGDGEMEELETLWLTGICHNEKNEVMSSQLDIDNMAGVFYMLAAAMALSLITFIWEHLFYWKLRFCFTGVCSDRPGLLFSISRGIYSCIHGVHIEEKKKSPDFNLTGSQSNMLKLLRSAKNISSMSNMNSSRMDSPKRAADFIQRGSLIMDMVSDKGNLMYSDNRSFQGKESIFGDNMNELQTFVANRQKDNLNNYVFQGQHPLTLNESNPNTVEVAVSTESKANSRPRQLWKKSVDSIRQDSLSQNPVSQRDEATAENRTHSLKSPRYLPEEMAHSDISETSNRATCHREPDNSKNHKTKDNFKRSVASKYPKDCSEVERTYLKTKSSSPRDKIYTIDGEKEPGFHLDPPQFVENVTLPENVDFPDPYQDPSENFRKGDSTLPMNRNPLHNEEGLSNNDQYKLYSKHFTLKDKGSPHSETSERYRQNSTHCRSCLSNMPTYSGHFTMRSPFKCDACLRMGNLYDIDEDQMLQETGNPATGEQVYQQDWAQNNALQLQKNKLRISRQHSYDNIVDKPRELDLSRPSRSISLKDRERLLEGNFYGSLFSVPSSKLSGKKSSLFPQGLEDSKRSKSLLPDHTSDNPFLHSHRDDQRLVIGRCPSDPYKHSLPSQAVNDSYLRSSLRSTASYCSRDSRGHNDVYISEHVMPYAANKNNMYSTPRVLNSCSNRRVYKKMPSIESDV

Compound | IC50 [1] | IC50 (Acetylcholinesterase [2]) | inhibition [4] | further results
Cc1ccc2[nH]c3c(c2c1)CN(CCCCCCN1CCc2[nH]c4ccc(C)cc4c2C1)CC3 | 11000 nM | 190 nM | 35.6% | fold change (FC) (Acetylcholinesterase [3]): 128
CN(C)CCCOc1ccc2oc(=O)c(-c3ccc(OC4=CC(=O)c5cc6ccccc6cc5C4=O)cc3)cc2c1 | – | – | – | Activity (L6): 7.95 µM; EC50 (Trypanosoma brucei): 26 nM
CN(C)CCOc1cc2ccc(OC3=CC(=O)c4cc5ccccc5cc4C3=O)cc2oc1=O | – | – | – | IC50 [5]: 5400 nM; Ki [6]: 2700 nM
O=C(Cc1ccccc1Nc1c(Cl)cccc1Cl)NCCCNCCCNC1=CC(=O)C(NCCCNCCCNC(=O)Cc2ccccc2Nc2c(Cl)cccc2Cl)=CC1=O | – | 600 nM | – | IC50 [7]: 3110 nM
CCN(CCCCCCNC1=CC(=O)C(NCCCCCCN(CC)Cc2ccccc2OC)=CC1=O)Cc1ccccc1OC [MEMOQUIN] | – | 15400 nM | – | –
O=C1C=C(Oc2ccccc2)C(=O)c2ccccc21 | – | – | – | selectivity ratio [8]: 74; EC50 [9]: 80 nM
Cc1ccc2[nH]c3c(c2c1)CN(CCCCCCCN1CCc2[nH]c4ccc(C)cc4c2C1)CC3 | 12600 nM | 690 nM | 35.2% | fold change (FC) (Acetylcholinesterase [3]): 128
Cc1ccc2c(c1)c1c(n2CCc2ccc(C)nc2)CCN(C)C1 [LATREPIRDINE] | 13900 nM | – | inactive | –
